Laboratory results reported in ChEMBL document CHEMBL6074680, “Structure-Based Discovery of a Series of Covalent, Orally Bioavailable, and Selective BFL1 Inhibitors” (J Med Chem, 2024).

Columns and labels:
[1] = Metabolic stability in mouse hepatocytes assessed as intrinsic clearance measured per 10^6 cells; type: ADME, cell-based, Hepatocyte; details: read-out: CLH
[2] = system: SU-DHL-1; test: Induction of apoptosis in human SU-DHL-1 cells assessed as caspase activation in presence of AZD5991 incubated for 6 hrs by caspaseGlo 3/7 reagent based assay; type: functional, cell-based; details: SU-DHL-1, 6 h
[3] = Lipophilicity, log D of compound in 1-octanol at pH 7.4 incubated for 4 hrs by HPLC-UV analysis; type: physicochemical; details: 1-octanol / aqueous phase at pH 7.4, pH 7.4
[4] = target: T1, BCL2A1/BID (Homo sapiens, UniProt Q16548); test: Inhibition of BFL-1/ BH3 (unknown origin) interaction incubated for 2 hrs by TR-FRET assay; type: protein assay
T1 sequence (Q16548 whole entry): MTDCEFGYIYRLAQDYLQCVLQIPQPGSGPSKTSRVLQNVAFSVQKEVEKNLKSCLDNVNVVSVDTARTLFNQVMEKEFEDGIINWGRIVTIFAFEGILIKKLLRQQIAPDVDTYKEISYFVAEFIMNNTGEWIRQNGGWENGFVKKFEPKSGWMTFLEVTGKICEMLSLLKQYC
T1 sequence (P55957 whole entry): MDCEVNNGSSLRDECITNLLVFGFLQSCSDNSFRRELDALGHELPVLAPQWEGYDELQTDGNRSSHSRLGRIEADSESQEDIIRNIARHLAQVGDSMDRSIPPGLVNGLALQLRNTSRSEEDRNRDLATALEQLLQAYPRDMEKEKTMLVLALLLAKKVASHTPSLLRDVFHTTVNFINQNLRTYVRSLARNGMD

[5] = Metabolic stability in human hepatocytes assessed as intrinsic clearance measured per 10^6 cells; type: ADME, cell-based, Hepatocyte; details: read-out: CLH
[6] = Metabolic stability in rat hepatocytes assessed as intrinsic clearance measured per 10^6 cells; type: ADME, cell-based, Hepatocyte
[7] = system: SU-DHL-1; test: Antiproliferative activity against human SU-DHL-1 cells assessed as cell viability incubated for 24 hrs by celltiter-glo assay; type: functional, cell-based; details: SU-DHL-1, 24 h
[8] = Metabolic stability in human liver microsome assessed as intrinsic clearance; type: ADME; details: human liver microsomes, read-out: CLH
[9] = GSH reactivity in PBS buffer at pH 7.4 assessed as half life by LC-UV/MS analysis; type: physicochemical
[10] = target: Induced myeloid leukemia cell differentiation protein Mcl-1 (Homo sapiens, UniProt Q07820); test: Inhibition of MCL1 (unknown origin) by FRET assay
Induced myeloid leukemia cell differentiation protein Mcl-1, sequence (Q07820 whole entry): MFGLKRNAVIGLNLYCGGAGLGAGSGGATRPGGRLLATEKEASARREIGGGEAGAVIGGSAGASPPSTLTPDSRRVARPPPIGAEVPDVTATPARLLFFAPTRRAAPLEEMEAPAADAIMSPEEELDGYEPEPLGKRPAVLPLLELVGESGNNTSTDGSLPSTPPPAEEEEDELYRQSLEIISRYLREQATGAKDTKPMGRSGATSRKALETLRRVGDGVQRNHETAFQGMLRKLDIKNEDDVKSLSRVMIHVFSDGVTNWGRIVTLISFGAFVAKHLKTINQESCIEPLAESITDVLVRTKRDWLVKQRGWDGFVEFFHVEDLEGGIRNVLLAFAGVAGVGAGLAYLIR

[11] = Apparent permeability across apical to basolateral side in human Caco-2 cells measured upto 120 mins by LC-MS/MS analysis; type: ADME, cell-based
[12] = target: Apoptosis regulator Bcl-2 (Homo sapiens, UniProt P10415); test: Inhibition of BCL2 (unknown origin) by FRET assay
Apoptosis regulator Bcl-2, sequence (P10415 whole entry): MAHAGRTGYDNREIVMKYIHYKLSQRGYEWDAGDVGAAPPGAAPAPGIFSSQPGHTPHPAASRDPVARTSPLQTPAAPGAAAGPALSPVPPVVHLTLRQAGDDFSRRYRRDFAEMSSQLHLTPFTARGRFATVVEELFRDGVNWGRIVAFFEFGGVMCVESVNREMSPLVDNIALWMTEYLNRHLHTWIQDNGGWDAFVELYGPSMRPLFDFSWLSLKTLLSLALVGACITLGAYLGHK

[13] = Half life in CD-1 mouse at 1 mg/kg, po or 0.5 mg/kg, iv measured upto 24 hrs by LC-MS/MS analysis; type: ADME, organism-based; details: in vivo
[14] = Volume of distribution at steady state in CD-1 mouse at 1 mg/kg, po or 0.5 mg/kg, iv measured upto 24 hrs by LC-MS/MS analysis; type: ADME, organism-based; details: in vivo
[15] = target: Bcl-2-like protein 1 (Homo sapiens, UniProt Q07817); test: Inhibition of Bcl-Xl (unknown origin) by FRET assay
Bcl-2-like protein 1, sequence (Q07817 whole entry): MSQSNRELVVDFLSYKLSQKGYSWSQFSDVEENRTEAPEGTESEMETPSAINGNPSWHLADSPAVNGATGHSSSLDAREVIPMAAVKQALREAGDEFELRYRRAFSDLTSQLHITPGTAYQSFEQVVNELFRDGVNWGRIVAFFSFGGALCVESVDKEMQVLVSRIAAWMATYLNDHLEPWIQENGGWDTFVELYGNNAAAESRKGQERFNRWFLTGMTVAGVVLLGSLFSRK

[16] = Plasma protein binding in mouse assessed as unbound fraction; type: ADME, cell-free

| Compound | EC50 [2] | logD at 4 h [3] | IC50 [4] | further results |
| --- | --- | --- | --- | --- |
| C=CC(=O)N(c1ccc(O[C@@H]2CC[C@@H](N)C2)c(Cl)c1)[C@@H](C)c1ccc(Cl)cc1 | 120 nM |  | 24 nM |  |
| C=CC(=O)N(c1ccc(O[C@@H]2CC[C@@H](NC(=O)NC3CCS(=O)(=O)C3)C2)cc1)[C@@H](C)c1ccc(Cl)cc1 (mixture of isomers) | 110 nM |  | 40 nM |  |
| C=CC(=O)N(c1ccc(O[C@@H]2CC[C@@H](N)C2)cc1OC)[C@@H](C)c1ccc(Cl)cc1 | 2400 nM |  | 880 nM |  |
| C=CC(=O)N(c1ccc(O[C@@H]2CC[C@@H](NC(=O)N[C@@H]3CCS(=O)(=O)C3)C2)c(F)c1)[C@@H](CC(C)(C)O)c1ccc(Cl)cc1 | 19 nM | 3.1 | 4.2 nM | hepatocyte CLint [1]: 49 µL/min/1e6 cells; hepatocyte CLint [5]: 5.3 µL/min/1e6 cells; hepatocyte CLint ([6]; rat hepatocytes, read-out: CLH): 52 µL/min/1e6 cells; EC50 [7]: 49 nM |
| C=C(F)C(=O)N(Cc1ccc(C(F)(F)F)cc1)c1ccc(O[C@@H]2CC[C@@H](N)C2)cc1 (racemic) |  |  | > 7800 nM |  |
| C=CC(=O)N(c1ccc(O[C@@H]2CC[C@@H](N)C2)cc1)[C@H](CNS(C)(=O)=O)c1ccc(Cl)cc1 | > 10000 nM |  | 2800 nM |  |
| C=CC(=O)N(c1cc(F)c(O[C@@H]2CC[C@@H](N)C2)cc1C)[C@@H](C)c1ccc(Cl)cc1 | 530 nM | 2.7 | 31 nM | hepatocyte CLint ([6]; hepatocytes): 12 µL/min/1e6 cells; microsomal CLint [8]: 9.4 µL/min/mg; half-life [9]: 4.47 h |
| CNS(=O)(=O)OCC(=O)N(Cc1ccc(Cl)cc1)c1ccc(O[C@@H]2CC[C@@H](N)C2)cc1 |  |  | 6500 nM |  |
| C=C(C)C(=O)N(Cc1ccc(C(F)(F)F)cc1)c1ccc(O[C@@H]2CC[C@@H](N)C2)cc1 (racemic) |  |  | > 10000 nM |  |
| C=CC(=O)N(c1ccc(O[C@@H]2CC[C@@H](N)C2)c(F)c1)[C@@H](CC(C)(C)O)c1ccc(Cl)cc1 | 42 nM | 1.5 | 11 nM | hepatocyte CLint [1]: 15 µL/min/1e6 cells; hepatocyte CLint [5]: 5.9 µL/min/1e6 cells; hepatocyte CLint ([6]; rat hepatocytes, read-out: CLH): 7.3 µL/min/1e6 cells; EC50 [7]: 58 nM |
| C[C@@H](c1ccc(Cl)cc1)N(C(=O)/C=C/CN(C)C)c1ccc(O[C@@H]2CC[C@@H](NC(=O)NC3CS(=O)(=O)C3)C2)c(F)c1 | 110 nM | 2.7 | 10 nM | hepatocyte CLint [1]: 23 µL/min/1e6 cells; Papp A→B at 2 h [11]: < 11 ×10⁻⁶ cm/s; hepatocyte CLint [5]: 2.6 µL/min/1e6 cells; IC50 [12]: > 30000 nM; half-life [13]: 2.7 h; Vdss [14]: 4.6 L/kg; EC50 [7]: 110 nM; IC50 [15]: > 30000 nM; fraction unbound [16]: 0.085 |
| C=CC(=O)N(c1ccc(O[C@@H]2CC[C@@H](N)C2)cc1)[C@@H](CCNS(C)(=O)=O)c1ccc(Cl)cc1 | 90 nM |  | 17 nM | EC50 [7]: 130 nM |

More lines, main results first:

| EC50 [2] | logD at 4 h [3] | IC50 [4] | Compound | further results |
| --- | --- | --- | --- | --- |
| 28 nM | 3.5 | 4.5 nM | C=CC(=O)N(c1ccc(O[C@@H]2CC[C@@H](NC(=O)NCCN(C)C)C2)c(Cl)c1)[C@@H](C)c1ccc(Cl)cc1 | hepatocyte CLint [1]: 42 µL/min/1e6 cells; hepatocyte CLint [5]: 9.8 µL/min/1e6 cells; hepatocyte CLint ([6]; rat hepatocytes, read-out: CLH): 17 µL/min/1e6 cells; EC50 [7]: 72 nM |
| 450 nM |  |  | C=CC(=O)N(c1ccc(O[C@@H]2CC[C@@H](N)C2)cc1)[C@@H](COC)c1ccc(Cl)cc1 | IC50 [10]: > 100000 nM |
| 610 nM |  | 74 nM | C=CC(=O)N(c1ccc(O[C@@H]2CC[C@@H](NC(=O)CCCN(C)C)C2)cc1)[C@@H](C)c1ccc(Cl)cc1 |  |
| 910 nM | 3.2 | 87 nM | C=CC(=O)N(c1ccc(O[C@@H]2CC[C@@H](NC(=O)N[C@@H]3CCS(=O)(=O)C3)C2)c(F)c1)[C@@H](C)c1ccc(C(F)(F)F)c(C#N)c1 | hepatocyte CLint ([6]; rat hepatocytes, read-out: CLH): 262 µL/min/1e6 cells |
| 120 nM |  | 14 nM | C=CC(=O)N(c1ccc(O[C@@H]2CC[C@@H](N)C2)c(C#N)c1)[C@@H](C)c1ccc(Cl)cc1 |  |
| 3100 nM |  | 29 nM | C=CC(=O)N(c1ccc(O[C@@H]2CC[C@@H](NC(=O)N[C@H]3CCNC3)C2)cc1)[C@@H](C)c1ccc(Cl)cc1 | IC50 [10]: > 100000 nM |
